# Laboratory results: patent publication US20100286424A1 (priority 2007, published 2010)
# Experiments:
# cell growth = format: cell-based
# mouse = conditions: in vivo, po; cited from earlier work
Compound,IC50 (cell growth) [µM],LD50 (mouse)
Arsenic acid,100,–
"C[As+](C)(C)CC(=O)[O-] [AB, arsenobetaine]",–,"10,000 mg/kg"
Arsenious acid,10,–
